Data taken from US12528790B2, “Amide derivative having antiviral activity” (Shionogi & Co., Ltd., priority 2020, dated 2026).

Assays:
RSV A2 strain = assay: In vitro CPE (CytoPathic Effect) inhibition effect evaluation test, RSV type A; type: cell-based; settings: human respiratory syncytial virus; inhibitory effect against RSV type A (RSV A2 strain), HEp-2 cells, CPE inhibition; read-out: EC50
Summary of the method: (§1)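 HEp-2 cells (2.4×10^5 cells/mL, 2% FBS E-MEM) were infected with RSV alongside 3-fold compound dilutions and incubated at 37 °C, 4 days for A2 and 5 days for B Wash/18537. Viable cells quantified by CellTiter-Glo 2.0 luminescence; EC50 by nonlinear regression as 50% CPE inhibition.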

[1] = system: RSV B (Wash/18537 strain); assay: In vitro CPE (CytoPathic Effect) inhibition effect evaluation test, RSV type B; type: cell-based; settings: human respiratory syncytial virus, inhibitory effect against RSV type B, CPE inhibition; read-out: EC50
Summary of the method: as §1

SMILES	EC50 (RSV A2 strain) [nM]	EC50 [1] [nM]
O=C(NC1(C(=O)O)C2CC3CC(C2)CC1C3)c1cnc(N2CC3(CCCCC3)c3cc(-n4ncc5c4CCN(CC(F)(F)F)C5)ccc32)nc1C(F)(F)F (stereo not shown) [Compound I-606]	< 10	< 10
CC(F)(F)c1nc(N2CC3(CCCCC3)c3cc(-n4ncc5c4CCN(CC(F)(F)F)C5)ccc32)ncc1C(=O)NC1(C(=O)O)C2CC3CC(C2)CC1C3 (stereo not shown) [Compound I-607]	< 10	< 10
CC(F)(F)c1nc(N2CC3(CCCCC3)c3cc(C(=O)N4CCN(CC(F)(F)F)CC4)ccc32)ncc1C(=O)NC1(C(=O)O)C2CC3CC(C2)CC1C3 (stereo not shown) [Compound I-608]	< 10	< 10
COC1CCN(C(=O)c2ccc3c(c2)C2(CCCCC2)CN3c2ncc(C(=O)NC3(C(=O)O)C4CC5CC(C4)CC3C5)c(C(C)(F)F)n2)CC1 (stereo not shown) [Compound I-609]	< 10	< 10
CC(F)(F)c1nc(N2CC3(CCCCC3)c3cc(C(=O)N4CCC(C(F)F)CC4)ccc32)ncc1C(=O)NC1(C(=O)O)C2CC3CC(C2)CC1C3 (stereo not shown) [Compound I-610]	< 10	< 10
CC(F)(F)c1nc(-c2cn(C3CCC(F)(F)CC3)c3cc(O[C@H]4CC[C@H](N5CC(F)(F)C5)CC4)ccc23)ncc1C(=O)N[C@]1(C(=O)O)[C@@H]2CC3C[C@H]1C[C@@](F)(C3)C2 [Compound I-611]	< 10	< 10
CC(F)(F)CN1CCC(Oc2ccc3c(-c4ncc(C(=O)NC5(C(=O)O)C6CC7CC(C6)CC5C7)c(C(C)(F)F)n4)cn(C4CCOCC4)c3c2)CC1 (stereo not shown) [Compound I-612]	< 10	< 10
CC[C@@H](C)n1cc(-c2ncc(C(=O)NC3(C(=O)O)C4CC5CC(C4)CC3C5)c(C(F)(F)F)n2)c2ccc(O[C@H]3CC[C@H](N4CC(F)(F)C4)CC3)cc21 (stereo partly shown) [Compound I-613]	< 10	< 10
O=C(NC1(C(=O)O)C2CC3CC(C2)CC1C3)c1cnc(-c2cn(C3CCOCC3)c3cc(O[C@H]4CC[C@@H](N5CC(F)(F)C5)CC4)ccc23)nc1C(F)(F)F (stereo partly shown) [Compound I-614]	< 10	< 10
COCC(C)n1cc(-c2ncc(C(=O)NC3(C(=O)O)C4CC5CC(C4)CC3C5)c(C(C)(F)F)n2)c2ccc(OC3CCN(CC(C)(F)F)CC3)cc21 (stereo not shown) [Compound I-615]	< 10	< 10
CC(C)n1cc(-c2ncc(C(=O)NC3(C(=O)O)C4CC5CC(C4)CC3C5)c(C(F)(F)F)n2)c2ccc(O[C@H]3CC[C@H](N4CC(F)(F)C4)CC3)cc21 (stereo partly shown) [Compound I-616]	< 10	< 10
CCC(C)n1cc(-c2ncc(C(=O)NC3(C(=O)O)C4CC5CC(C4)CC3C5)c(C(F)(F)F)n2)c2ccc(O[C@H]3CC[C@H](N4CC(F)(F)C4)CC3)cc21 (stereo partly shown) [Compound I-617]	< 10	< 10
CC(C)n1cc(-c2ncc(C(=O)NC3(C(=O)O)C4CC5CC(C4)CC3C5)c(C(C)(F)F)n2)c2ccc(O[C@H]3CC[C@H](N4CC(F)(F)C4)CC3)cc21 (stereo partly shown) [Compound I-618]	< 10	< 10
COC[C@@H](C)n1cc(-c2ncc(C(=O)NC3(C(=O)O)C4CC5CC(C4)CC3C5)c(C(C)(F)F)n2)c2ccc(OC3CC(N4CC(F)(F)C4)C3)cc21 (stereo partly shown) [Compound I-620]	< 10	< 10
